According to ChEMBL document CHEMBL4715855, “N-phenyl ureidobenzenesulfonates, a novel class of promising human dihydroorotate dehydrogenase inhibitors” (Bioorg Med Chem, 2020):
pIC50: −log10 of the molar value.

Tests used:
Format in all cases: functional, cell-based
[1] = system: Panel leukemia (Carcinoma cell lines); test: Antiproliferative activity against human Panel leukemia (Carcinoma cell lines) assessed as cell growth inhibition measured after 48 hrs by SRB assay
SR = test: Antiproliferative activity against human SR cells assessed as cell growth inhibition measured after 48 hrs by sulforhodamine B assay
NCI-H322M = test: Antiproliferative activity against human NCI-H322M cells assessed as cell growth inhibition measured after 48 hrs by sulforhodamine B assay
UO-31 = test: Antiproliferative activity against human UO-31 cells assessed as cell growth inhibition measured after 48 hrs by sulforhodamine B assay; details: UO-31, 48 h
COLO 205 = test: Antiproliferative activity against human COLO 205 cells assessed as cell growth inhibition measured after 48 hrs by sulforhodamine B assay; details: COLO 205, 48 h
OVCAR-8 = test: Antiproliferative activity against human OVCAR-8 cells assessed as cell growth inhibition measured after 48 hrs by sulforhodamine B assay; details: OVCAR-8, 48 h
CAKI-1 = test: Antiproliferative activity against human CAKI-1 cells assessed as cell growth inhibition measured after 48 hrs by sulforhodamine B assay; details: CAKI-1, 48 h
DU-145 = test: Antiproliferative activity against human DU-145 cells assessed as cell growth inhibition measured after 48 hrs by sulforhodamine B assay; details: DU-145, 48 h
SK-OV-3 = test: Antiproliferative activity against human SK-OV-3 cells assessed as cell growth inhibition measured after 48 hrs by sulforhodamine B assay; details: SK-OV-3, 48 h
SK-MEL-5 = test: Antiproliferative activity against human SK-MEL-5 cells assessed as cell growth inhibition measured after 48 hrs by sulforhodamine B assay; details: SK-MEL-5, 48 h
SK-MEL-28 = test: Antiproliferative activity against human SK-MEL-28 cells assessed as cell growth inhibition measured after 48 hrs by sulforhodamine B assay; details: SK-MEL-28, 48 h
OVCAR-4 = test: Antiproliferative activity against human OVCAR-4 cells assessed as cell growth inhibition measured after 48 hrs by sulforhodamine B assay; details: OVCAR-4, 48 h
HT-29 [2] = test: Antiproliferative activity against human HT-29 cells assessed as cell growth inhibition measured after 48 hrs in presence of uridine by SRB assay; details: HT-29, 48 h
CCRF-CEM = test: Antiproliferative activity against human CCRF-CEM cells assessed as cell growth inhibition measured after 48 hrs by sulforhodamine B assay
RXF 393 = test: Antiproliferative activity against human RXF 393 cells assessed as cell growth inhibition measured after 48 hrs by sulforhodamine B assay; details: RXF 393, 48 h
HT-1080 [3] = test: Antiproliferative activity against human HT-1080 cells assessed as cell growth inhibition measured after 48 hrs by SRB assay; details: HT-1080, 48 h
[4] = system: Panel NCI-60 (60 carcinoma cell lines); test: Antiproliferative activity against human Panel NCI-60 (60 carcinoma cell lines) assessed as cell growth inhibition measured after 48 hrs by SRB assay
ACHN = test: Antiproliferative activity against human ACHN cells assessed as cell growth inhibition measured after 48 hrs by sulforhodamine B assay
NCI-H460 = test: Antiproliferative activity against human NCI-H460 cells assessed as cell growth inhibition measured after 48 hrs by sulforhodamine B assay; details: NCI-H460, 48 h
MCF7 [5] = test: Antiproliferative activity against human MCF7 cells assessed as cell growth inhibition measured after 48 hrs in presence of uridine by SRB assay; details: MCF7, 48 h
M14 = test: Antiproliferative activity against human M14 cells assessed as cell growth inhibition measured after 48 hrs by sulforhodamine B assay; details: M14, 48 h
OVCAR-5 = test: Antiproliferative activity against human OVCAR-5 cells assessed as cell growth inhibition measured after 48 hrs by sulforhodamine B assay; details: OVCAR-5, 48 h
MOLT-4 = test: Antiproliferative activity against human MOLT-4 cells assessed as cell growth inhibition measured after 48 hrs by sulforhodamine B assay; details: MOLT-4, 48 h
NCI-H226 = test: Antiproliferative activity against human NCI-H226 cells assessed as cell growth inhibition measured after 48 hrs by sulforhodamine B assay; details: NCI-H226, 48 h
SN12C = test: Antiproliferative activity against human SN12C cells assessed as cell growth inhibition measured after 48 hrs by sulforhodamine B assay
U-251 = test: Antiproliferative activity against human U-251 cells assessed as cell growth inhibition measured after 48 hrs by sulforhodamine B assay; details: U-251, 48 h
Malme-3M = test: Antiproliferative activity against human Malme-3M cells assessed as cell growth inhibition measured after 48 hrs by sulforhodamine B assay
KM12 = test: Antiproliferative activity against human KM12 cells assessed as cell growth inhibition measured after 48 hrs by sulforhodamine B assay; details: KM12, 48 h
PC-3 = test: Antiproliferative activity against human PC-3 cells assessed as cell growth inhibition measured after 48 hrs by sulforhodamine B assay; details: PC-3, 48 h
TK-10 = test: Antiproliferative activity against human TK-10 cells assessed as cell growth inhibition measured after 48 hrs by sulforhodamine B assay; details: TK-10, 48 h
A498 = test: Antiproliferative activity against human A498 cells assessed as cell growth inhibition measured after 48 hrs by sulforhodamine B assay; details: A498, 48 h
NCI/ADR-RES = test: Antiproliferative activity against human NCI/ADR-RES cells assessed as cell growth inhibition measured after 48 hrs by sulforhodamine B assay
Hs-578T = test: Antiproliferative activity against human Hs-578T cells assessed as cell growth inhibition measured after 48 hrs by sulforhodamine B assay
786-0 = test: Antiproliferative activity against human 786-0 cells assessed as cell growth inhibition measured after 48 hrs by sulforhodamine B assay; details: 786-0, 48 h
HOP-62 = test: Antiproliferative activity against human HOP-62 cells assessed as cell growth inhibition measured after 48 hrs by sulforhodamine B assay; details: HOP-62, 48 h
A549 = test: Antiproliferative activity against human A549/ATCC cells assessed as cell growth inhibition measured after 48 hrs by sulforhodamine B assay; details: A549, 48 h
SF-539 = test: Antiproliferative activity against human SF-539 cells assessed as cell growth inhibition measured after 48 hrs by sulforhodamine B assay; details: SF-539, 48 h
OVCAR-3 = test: Antiproliferative activity against human OVCAR-3 cells assessed as cell growth inhibition measured after 48 hrs by sulforhodamine B assay; details: OVCAR-3, 48 h
MCF7 [6] = test: Antiproliferative activity against human MCF7 cells assessed as cell growth inhibition measured after 48 hrs by SRB assay; details: MCF7, 48 h
SK-MEL-2 = test: Antiproliferative activity against human SK-MEL-2 cells assessed as cell growth inhibition measured after 48 hrs by sulforhodamine B assay; details: SK-MEL-2, 48 h
K562 = test: Antiproliferative activity against human K562 cells assessed as cell growth inhibition incubated for 48 hrs by sulforhodamine B assay; details: K562, 48 h
UACC-62 = test: Antiproliferative activity against human UACC-62 cells assessed as cell growth inhibition measured after 48 hrs by sulforhodamine B assay; details: UACC-62, 48 h
T47D = test: Antiproliferative activity against human T47D cells assessed as cell growth inhibition measured after 48 hrs by sulforhodamine B assay
SF-268 = test: Antiproliferative activity against human SF-268 cells assessed as cell growth inhibition measured after 48 hrs by sulforhodamine B assay; details: SF-268, 48 h
MDA-MB-231 = test: Antiproliferative activity against human MDA-MB-231/ATCC cells assessed as cell growth inhibition measured after 48 hrs by sulforhodamine B assay; details: MDA-MB-231, 48 h
MDA-MB-435 = test: Antiproliferative activity against human MDA-MB-435 cells assessed as cell growth inhibition measured after 48 hrs by sulforhodamine B assay; details: MDA-MB-435, 48 h
HT-1080 [7] = test: Antiproliferative activity against human HT-1080 cells assessed as cell growth inhibition measured after 48 hrs in presence of uridine by SRB assay; details: HT-1080, 48 h
NCI-H522 = test: Antiproliferative activity against human NCI-H522 cells assessed as cell growth inhibition measured after 48 hrs by sulforhodamine B assay; details: NCI-H522, 48 h
HCT-116 = test: Antiproliferative activity against human HCT-116 cells assessed as cell growth inhibition measured after 48 hrs by sulforhodamine B assay; details: HCT-116, 48 h
UACC-257 = test: Antiproliferative activity against human UACC-257 cells assessed as cell growth inhibition measured after 48 hrs by sulforhodamine B assay; details: UACC-257, 48 h
SNB-75 = test: Antiproliferative activity against human SNB-75 cells assessed as cell growth inhibition measured after 48 hrs by sulforhodamine B assay; details: SNB-75, 48 h
HCC 2998 = test: Antiproliferative activity against human HCC 2998 cells assessed as cell growth inhibition measured after 48 hrs by sulforhodamine B assay; details: HCC 2998, 48 h
HOP-92 = test: Antiproliferative activity against human HOP-92 cells assessed as cell growth inhibition measured after 48 hrs by sulforhodamine B assay; details: HOP-92, 48 h
M21 [8] = test: Antiproliferative activity against human M21 cells assessed as cell growth inhibition measured after 48 hrs in presence of uridine by SRB assay; details: M21, 48 h
RPMI-8226 = test: Antiproliferative activity against human RPMI-8226 cells assessed as cell growth inhibition measured after 48 hrs by sulforhodamine B assay; details: RPMI-8226, 48 h
IGROV-1 = test: Antiproliferative activity against human IGROV-1 cells assessed as cell growth inhibition measured after 48 hrs by sulforhodamine B assay; details: IGROV-1, 48 h
LOX IMVI = test: Antiproliferative activity against human LOX IMVI cells assessed as cell growth inhibition measured after 48 hrs by sulforhodamine B assay
SF-295 = test: Antiproliferative activity against human SF-295 cells assessed as cell growth inhibition measured after 48 hrs by sulforhodamine B assay; details: SF-295, 48 h
[9] = system: Panel colon (Carcinoma cell lines); test: Antiproliferative activity against human Panel colon (Carcinoma cell lines) assessed as cell growth inhibition measured after 48 hrs by SRB assay
SW-620 = test: Antiproliferative activity against human SW-620 cells assessed as cell growth inhibition measured after 48 hrs by sulforhodamine B assay; details: SW-620, 48 h
HT-29 [10] = test: Antiproliferative activity against human HT-29 cells assessed as cell growth inhibition measured after 48 hrs by SRB assay; details: HT-29, 48 h
BT-549 = test: Antiproliferative activity against human BT-549 cells assessed as cell growth inhibition measured after 48 hrs by sulforhodamine B assay; details: BT-549, 48 h
HCT-15 = test: Antiproliferative activity against human HCT-15 cells assessed as cell growth inhibition measured after 48 hrs by sulforhodamine B assay; details: HCT-15, 48 h
NCI-H23 = test: Antiproliferative activity against human NCI-H23 cells assessed as cell growth inhibition measured after 48 hrs by sulforhodamine B assay; details: NCI-H23, 48 h
M21 [11] = test: Antiproliferative activity against human M21 cells assessed as cell growth inhibition measured after 48 hrs by SRB assay; details: M21, 48 h
SNB-19 = test: Antiproliferative activity against human SNB-19 cells assessed as cell growth inhibition measured after 48 hrs by sulforhodamine B assay; details: SNB-19, 48 h

- pIC50 [1]: 6.09
- pIC50 (NCI-H322M): 4.89
- pIC50 (COLO 205): 5.60
- pIC50 (OVCAR-8): 6.07
- pIC50 (DU-145): 5.91
- pIC50 (SK-OV-3): 4.90
- pIC50 (SK-MEL-5): 5.61
- pIC50 (SK-MEL-28): 4.93
- pIC50 (OVCAR-4): 4.65
- pIC50 (HT-29 [2]): 4.57
- pIC50 (CCRF-CEM): 6.04
- pIC50 (HT-1080 [3]): 6.35
- pIC50 (ACHN): 5.80
- pIC50 (NCI-H460): 6.37
- pIC50 (MCF7 [5]): 4.74
- pIC50 (OVCAR-5): 4.64
- pIC50 (MOLT-4): 6.55
- pIC50 (NCI-H226): 5.03
- pIC50 (U-251): 6.21
- pIC50 (PC-3): 6.08
- pIC50 (786-0): 5.04
- pIC50 (A549): 6.02
- pIC50 (OVCAR-3): 5.18
- pIC50 (MCF7 [6]; read-out: IC50): 5.23
- IC50 (MCF7 [6]; read-out: pIC50 (converted)): 3.24 µM
- pIC50 (SK-MEL-2): 4.79
- pIC50 (K562): 6.55
- pIC50 (T47D): 4.79
- pIC50 (MDA-MB-231): 4.93
- pIC50 (MDA-MB-435): 5.35
- pIC50 (HT-1080 [7]): 5.13
- pIC50 (NCI-H522): 5.88
- pIC50 (HCT-116): 6.24
- pIC50 (HCC 2998): 4.77
- pIC50 (RPMI-8226): 5.86
- pIC50 [9]: 5.82
- pIC50 (SW-620): 5.56
- pIC50 (HT-29 [10]; read-out: IC50): 6.00
- IC50 (HT-29 [10]; read-out: pIC50 (converted)): 1.02 µM
- pIC50 (BT-549): 4.93
- pIC50 (HCT-15): 6.60
- pIC50 (NCI-H23): 4.89
SMILES: CCNC(=O)Nc1ccc(S(=O)(=O)Oc2ccccc2CC)cc1
- pIC50 (SR): 6.13
- pIC50 (UO-31): 5.22
- pIC50 (CAKI-1): 6.12
- pIC50 (RXF 393): 4.90
- pIC50 [4]: 5.46
- pIC50 (M14): 5.38
- pIC50 (SN12C): 5.14
- pIC50 (Malme-3M): 4.75
- pIC50 (KM12): 5.94
- pIC50 (TK-10): 4.88
- pIC50 (A498): 5.23
- pIC50 (NCI/ADR-RES): 5.45
- pIC50 (Hs-578T): 4.95
- pIC50 (HOP-62): 4.84
- pIC50 (SF-539): 5.67
- pIC50 (UACC-62): 5.60
- pIC50 (SF-268): 5.54
- pIC50 (UACC-257): 4.88
- pIC50 (SNB-75): 5.04
- pIC50 (HOP-92): 5.18
- pIC50 (M21 [8]): 4.52
- pIC50 (IGROV-1): 5.23
- pIC50 (LOX IMVI): 6.38
- pIC50 (SF-295): 6.12
- pIC50 (M21 [11]): 5.52
- pIC50 (SNB-19): 5.44
